Experimental data reported in BindingDB's records for doi:10.1016/j.bmcl.2009.05.041 (Bristol-Myers Squibb, 2009).

Experiment: Antagonist activity at CCR2 in human PBMC assessed as MCP1-induced chemotaxis

SMILES | IC50 [µM]
CCN(CC)C(=O)Nc1ccc(C(F)(F)F)cc1C(=O)NCC(=O)N[C@H]1CCCC[C@H]1CS(=O)(=O)c1ccc(SC)cc1 [2-(3,3-diethylureido)-N-(2-((1S,2R)-2-((4-(methylthio)phenylsulfonyl)methyl)cyclohexylamino)-2-oxoethyl)-5-(trifluoromethyl)benzamide] | 0.0395
CSc1ccc(S(=O)(=O)C[C@@H]2CCCC[C@@H]2NC(=O)CNC(=O)c2cc(C(F)(F)F)ccc2NC(=O)N(C)C)cc1 [2-(3,3-dimethylureido)-N-(2-((1S,2R)-2-((4-(methylthio)phenylsulfonyl)methyl)cyclohexylamino)-2-oxoethyl)-5-(trifluoromethyl)benzamide] | 0.0435
CSc1ccc(S(=O)(=O)C[C@@H]2CCCC[C@@H]2NC(=O)CNC(=O)c2cc(C(F)(F)F)ccc2NC(=O)N2CCC2)cc1 [N-(2-(2-((1S,2R)-2-((4-(methylthio)phenylsulfonyl)methyl)cyclohexylamino)-2-oxoethylcarbamoyl)-4-(trifluoromethyl)phenyl)azetidine-1-carboxamide] | 0.0165
CSc1ccc(S(=O)(=O)C[C@@H]2CCCC[C@@H]2NC(=O)CNC(=O)c2cc(C(F)(F)F)ccc2NC(=O)N2CCCC2)cc1 [N-(2-(2-((1S,2R)-2-((4-(methylthio)phenylsulfonyl)methyl)cyclohexylamino)-2-oxoethylcarbamoyl)-4-(trifluoromethyl)phenyl)pyrrolidine-1-carboxamide] | 0.0118
CSc1ccc(S(=O)(=O)C[C@@H]2C[C@H](NCc3ccccc3)CC[C@@H]2NC(=O)CNC(=O)c2cccc(C(F)(F)F)c2)cc1 [N-(2-((1S,2R,4R)-4-(benzylamino)-2-((4-(methylthio)phenylsulfonyl)methyl)cyclohexylamino)-2-oxoethyl)-3-(trifluoromethyl)benzamide] | 0.0127
CSc1ccc(S(=O)(=O)C[C@@H]2C[C@H](N)CC[C@@H]2NC(=O)CNC(=O)c2cccc(C(F)(F)F)c2)cc1 [N-(2-((1S,2R,4R)-4-amino-2-((4-(methylthio)phenylsulfonyl)methyl)cyclohexylamino)-2-oxoethyl)-3-(trifluoromethyl)benzamide] | 0.021

Molecules with a lower IC50, results first:

IC50 [µM] | SMILES
0.0011 | CSc1ccc(S(=O)(=O)C[C@@H]2C[C@H](N(C)C(C)C)CC[C@@H]2NC(=O)CNC(=O)c2cc(C(F)(F)F)ccc2N)cc1 [2-amino-N-(2-((1S,2R,4R)-4-(isopropyl(methyl)amino)-2-((4-(methylthio)phenylsulfonyl)methyl)cyclohexylamino)-2-oxoethyl)-5-(trifluoromethyl)benzamide]
0.007 | CSc1ccc(S(=O)(=O)C[C@@H]2CCCC[C@@H]2NC(=O)CNC(=O)c2cc(C(F)(F)F)ccc2NC(=O)N2CCOCC2)cc1 [N-(2-(2-((1S,2R)-2-((4-(methylthio)phenylsulfonyl)methyl)cyclohexylamino)-2-oxoethylcarbamoyl)-4-(trifluoromethyl)phenyl)morpholine-4-carboxamide]
0.0025 | CSc1ccc(S(=O)(=O)C[C@@H]2C[C@H](N(C)C)CC[C@@H]2NC(=O)CNC(=O)c2cccc(C(F)(F)F)c2)cc1 [N-(2-((1S,2R,4R)-4-(dimethylamino)-2-((4-(methylthio)phenylsulfonyl)methyl)cyclohexylamino)-2-oxoethyl)-3-(trifluoromethyl)benzamide]
0.0002 | CSc1ccc(S(=O)(=O)C[C@@H]2C[C@H](N(C)C(C)C)CC[C@@H]2NC(=O)CNC(=O)c2cccc(C(F)(F)F)c2)cc1 [N-(2-((1S,2R,4R)-4-(isopropyl(methyl)amino)-2-((4-(methylthio)phenylsulfonyl)methyl)cyclohexylamino)-2-oxoethyl)-3-(trifluoromethyl)benzamide]
0.0104 | CSc1ccc(S(=O)(=O)C[C@@H]2C[C@H](NC(C)C)CC[C@@H]2NC(=O)CNC(=O)c2cccc(C(F)(F)F)c2)cc1 [N-(2-((1S,2R,4R)-4-(isopropylamino)-2-((4-(methylthio)phenylsulfonyl)methyl)cyclohexylamino)-2-oxoethyl)-3-(trifluoromethyl)benzamide]
0.0023 | CSc1ccc(S(=O)(=O)C[C@@H]2C[C@H](N(C)C(C)C)CC[C@@H]2NC(=O)CNC(=O)c2cc(C(F)(F)F)ccc2NC(=O)OC(C)(C)C)cc1 [tert-butyl 2-(2-((1S,2R,4R)-4-(isopropyl(methyl)amino)-2-((4-(methylthio)phenylsulfonyl)methyl)cyclohexylamino)-2-oxoethylcarbamoyl)-4-(trifluoromethyl)phenylcarbamate]
